Source: patent US20210213120A1, “KRAS PEPTIDE VACCINE COMPOSITIONS AND METHOD OF USE” (THE MEDICAL COLLEGE OF WISCONSIN , INC., priority 2017, published 2021)
No end group written: not given here.

Key:
[1] = tested on: IFN-γ-secreting splenocytes; assay: IFN-γ ELISPOT of splenocytes from vaccinated CCSP-KRAS^G12D mice at end of study (epitope spreading); format: in vivo, mouse; details: for mean IFN-γ-secreting cell responses: splenocytes of mice vaccinated with KRAS combination vaccine, pulsed with the named peptide(s) 72 h
Protocol: FIG. 3. Epitope spreading tested by IFN-γ ELISPOT. Mice were vaccinated with the KRAS combination vaccine (p5-21, p5-21 G12D, p17-31, and p78-92). Then splenocytes were collected and pulsed with KRAS combo peptides, each single KRAS peptide, unvaccinated KRAS peptide p75-89, combo IGFR peptides, or Tert peptide. After 72 h of incubation, the ELISPOT assay was performed, plates were scanned, and spot numbers were statistically analyzed.
(§1) Cell suspensions from whole spleens were filtered through a 70 μm cell strainer (BD) and subjected to red blood cell lysis using ACK lysis buffer. 1.5˜3.0×10^4 cells were plated into individual wells of a MAIPS4510 Multiscreen 96 well plate previously coated with anti-interferon γ […] antibody and containing media with either peptide, positive control (concanavalin A) or negative control (HIV peptide, or no antigen). After 72 hours, plates were washed and a secondary antibody (BD) was added and incubated on the plate overnight at 4 degrees Celsius. Wells were then washed with PBS and HRP streptavidin was added. Following 1 h incubation, the plate was developed using AEC substrate for between 5-25 minutes. The plate was subsequently gently washed under cold running tap water. When dry, an automated plate reader system (CTL Technologies) was used to image the plates and quantify spot number.
In order to examine the specific immunity that confers the protective effect of the KRAS vaccine, an IFN-γELISPOT assay of splenocytes isolated from adjuvant alone and vaccinated CCSP-KRAS^G12D mice was performed at the end of the study. […] The mean IFN-γ-secreting cell responses were 216 in the pooled KRAS peptides group, and 36, 40, 116, and 52 to individual peptides p5-21, p5-21 G12D, p17-31, and p78-92, respectively. […] There was no evidence of general immune hyperactivity stimulation as none of the animals responded to an irrelevant naïve antigen, further supporting the notion that the immune response detected in the vaccinated group was highly specific to the KRAS vaccine.

[2] = tested on: IFN-γ-secreting splenocytes; assay: IFN-γ ELISPOT screen of single KRAS peptides in naïve mice; format: in vivo, mouse; details: for IFN-γ response (ELISPOT): naïve mice vaccinated with single KRAS peptide; for IFN-γ response (ELISPOT) / mean IFN-γ-secreting cells: splenocytes pulsed 72 h
Text: FIG. 1A-1C. In vivo screen for peptide candidates by ELISPOT in naïve mice. (A) Immunogenic heatmap for identifying peptides associated with highest binding affinity across multiple MHC class II alleles. Colors represent percentile to highest score from three algorithms for each amino acid from dark red to light blue in the order of rank scores. Color strata are as follows: dark red ≥75% of the highest score; red=50˜75% of the highest score; orange=40˜50% of highest score; yellow=30˜40% of the highest score; green=20˜30% of the highest score; blue ≤20% of the highest score. (B) Representative ELISPOT results showing T cell responses to specific KRAS peptides from mouse splenocytes stimulated with no antigen (first row), negative control peptide (HIV peptide, second row), target peptide (third row), or positive control ConA (fourth row). (C) Quantified ELISPOT results. Then, splenocytes were collected and pulsed with no antigen control, each single KRAS peptide, or negative control peptide (HIV peptide), or positive control ConA. After 72 h of incubation, the ELISPOT assay was performed, plates were scanned, and spot numbers were statistically analyzed. Open bar, ELISPOT reads from KRAS peptide vaccinated animals pulsed with specific KRAS peptide; blue bar, ELISPOT reads from animals injected only with adjuvant and pulsed with specific KRAS peptide; black bar, ELISPOT reads from three most significant KRAS peptide vaccinated animals. Data are shown as the mean±SE of three replicate wells per group, n=5.
Mice were vaccinated with 50 μg of each peptide. Phosphate buffered saline (PBS) was added to bring the total volume to 50 μL/mouse. An equal amount of adjuvant (Complete Freund's Adjuvant or Incomplete Freund's Adjuvant) was added to bring the total volume to 100 μL/mouse. Mice were injected subcutaneously on the shoulder at 7 weeks of age, and boosting vaccination was given every two weeks for the first three boosting and every 4 weeks for the last three boosting as shown in FIG. 2A. Transgene Kras was initiated with Dox diet (625 mg/kg diet) one week after the fourth vaccination, and Dox diet was given throughout of the study.
as §1
Using a multi-scoring system that combines multiple MHC class II peptide binding algorithms, immunogenic “hotspots” were identified; 11 peptides (Table 2) were selected; their immunogenicity was evaluated in naïve mice using the IFN-γ ELISPOT assay as previously reported. The KRAS 17-mer peptide (p5-21) that covers the mutation in codon 12, and its G12D mutant (p5-21 G12D) were also selected as robust peptides to stimulate immune response. […] To include peptides against both wild-type and mutant KRAS, also based on a high degree of homology between human and mouse KRAS, peptides p5-21 (SEQ ID NO:2), p5-21 G12D (SEQ ID NO:1), p17-31 (SEQ ID NO:4), and p78-92 (SEQ ID NO:6) were chosen to formulate a multipeptide KRAS vaccine in the preventive efficacy study.

[3] = Immune response to KRAS peptides (Table 1)
[4] = tested on: K-ras-driven lung cancer syngraft; assay: K-ras-driven lung cancer syngraft tumor model (avasimibe combination); format: in vivo, mouse; details: tumor volume over time
Protocol: FIG. 10. K-ras vaccine synergize with Avasamibe to inhibit lung tumor progression in K-ras-driven lung cancer syngraft tumor model.
Mice were treated with the combination of K-ras multi-peptide vaccine with avasimibe in a K-ras-driven lung cancer syngraft model. Tumor volume was assessed over time post tumor cell inoculation.
Therefore, we tested the combination of K-ras multi-peptide vaccine with avasimibe in a K-ras-driven lung cancer syngraft model.

IFN-γ response = assay: IFN-γ ELISPOT of PD-1 and PD-L1 peptides in naïve mice; format: in vivo, mouse
Protocol: The immunogenicity of PD-1 and PD-L1 were tested in naïve mice using the IFN-γ ELISPOT assay. (P<0.0001, data not shown)
Cancer cells are naturally attacked by cells of the immune system, but can induce a state of tolerance whereby they escape from immune attack, for which immune checkpoint proteins such as PD1, VISTA are important ones mediating this immune escape. Interaction of PD-1 on activated T cells and PD-L1 on cancer cells lead to inhibition of the cytotoxic T cells. Investigators have recently identified spontaneous T cell reactivity against PD-L1 in the tumor microenvironment and in the peripheral blood of patients with metastatic melanoma and healthy donors, PD-L1 reactive CD8 T cells are cytotoxic and can kill cancer cells and immune regulatory cells in vitro, and responsive PD-L1 peptide vaccine has therefore under development. Here, by using a multi-scoring system that combines multiple MHC class II peptide binding algorithms, we identified immunogenic “hotspots”, and selected 7 peptides for PD-L1 and 11 peptides for PD-1 from these immunogenic “hot” regions (see Table 3). We then tested their immunogenicity in naïve mice using the IFN-γ ELISPOT assay.

[5] = tested on: tumor infiltrated CD8+ cells and Tregs; assay: T cells in spleen or tumor of K-rasLA1 mice; format: in vivo, mouse; details: 4~5 weeks after treatment
Protocol: FIG. 8. UAB30 increased tumor infiltrated CD8+ cells and decreased Tregs in tumor. K-rasLA1 mice were treated with control, Kras-vaccine, UAB30 alone or Kras-vaccine and UAB30 and the % CD4+ or CD8+ T cells were assessed in the spleen or tumor of mice at 4˜5 weeks after treatment.
K-rasLA1 mouse develops premalignant lung lesions that progress to multifocal lung adenocarcinomas due to somatic mutations in K-ras, which occurs at the birth of these mice through DNA recombination. […] In this model, vaccination was given when mice were 8˜10 weeks old, at which numerous pleural lesions already formed in lung, yet K-ras vaccination alone significant inhibited lung tumor multiplicity and load in K-rasLA1 mice, decreased tumor numbers from ˜12 to ˜7 per mouse, and tumor load from ˜55 mm3 to ˜30 mm3 (FIG. 7).

## GEGFLCVFAINNTKS [p75-89]
[1]; splenocytes of vaccinated animals
  IFN-γ response to non-vaccine KRAS peptide: strong response
[2]
  IFN-γ response (ELISPOT): much weaker response

## KLVVVGADGVGKSALTI [p5-21 G12D]
[1]
  mean IFN-γ-secreting cell responses: 40
[2]; naïve mice
  mean IFN-γ-secreting cells: around 100 spots per well (SPW)
[3]
  Immune response: Yes

## TgegFLCVFAINNTKSFED (TGEGFLCVFAINNTKSFED) [P75]
[3]
  Immune response: Yes

## KLVVVGAVGVGKSALTI [P5-21G12V]
[3]
  Immune response: Yes

## AGGVGKSALTIQLLQNHFVDE [p11s]
[3]
  Immune response: Yes

## DAFYTLVREIRKHKE [p154-168]
[2]
  IFN-γ response (ELISPOT): much weaker response

## SALTIQLIQNHFVDE [p17-31]
[1]
  mean IFN-γ-secreting cell responses: 116
[2]
  IFN-γ response (ELISPOT): strongest IFN-γ response
[3]
  Immune response: Yes

## FYTLVREIRKHKEKM [p156-170]
[2]
  IFN-γ response (ELISPOT): strongest IFN-γ response
[3]
  Immune response: Yes

## kSALTIQLIQNHFVDEyd (KSALTIQLIQNHFVDEYD; not fully specified (residues 1, 17, 18); printed as kSALTIQLIQNHFVDEyd) [P16]
[3]
  Immune response: Yes

## KLVVVGAGGVGKSAL [p5-19]
[2]; IFN-γ ELISPOT, naïve mice
  response relative to p5-21: less than 50%

## CC(C)c1cc(C(C)C)c(CC(=O)NS(=O)(=O)Oc2c(C(C)C)cccc2C(C)C)c(C(C)C)c1 [avasimibe]
[4]
  tumor growth inhibition: effective in inhibiting tumor growth

## PQHSNFRGRASLPKD [mPDL1-76]
IFN-γ response
  IFN-γ response, peptides against PD-L1: strongest IFN-γ response

## FLCVFAINNTKSFED [p78-92]
[1]
  mean IFN-γ-secreting cell responses: 52
[2]
  IFN-γ response (ELISPOT): strongest IFN-γ response
[3]
  Immune response: Yes

## QDARFQIIQLPNRHD [mPD1-94]
IFN-γ response
  IFN-γ response, peptides for PD-1: strongest IFN-γ response

## LPATHPPQNRTHWVL [mPDL1228]
IFN-γ response
  IFN-γ response, peptides against PD-L1: strongest IFN-γ response
  IFN-γ response, peptides for PD-1: strongest IFN-γ response

## AGGVGKSALTIQLLQNHFVDEYD [p11]
[3]
  Immune response: Yes

## VGAGGVGKSALTIQLLQNHFVDEYD [p9]
[3]
  Immune response: Yes

## CC(=C/C=C/C(C)=C/C(=O)O)/C=C1\CCCc2ccccc21 [UAB30]
[5]
  Tregs in tumors: decreased
  infiltrated CD8+ cells in tumors: significantly increased

## KLVVVGAGGVGKSALTI [p5-21]
[1]
  mean IFN-γ-secreting cell responses: 36
[2]
  IFN-γ response (ELISPOT): strongest IFN-γ response
[2]; naïve mice
  mean IFN-γ-secreting cells: around 100 spots per well (SPW)
[3]
  Immune response: Yes

## LAVFCSTSMSEARGA [mPD1-193]
IFN-γ response
  IFN-γ response, peptides for PD-1: strongest IFN-γ response

## CHLLRAFTITAPKDL [mPDL1-13]
IFN-γ response
  IFN-γ response, peptides against PD-L1: strongest IFN-γ response

## SWQSGWLLEVPNGPW [mPD1-21]
IFN-γ response
  IFN-γ response, peptides for PD-1: strongest IFN-γ response
